Values of other authors as cited in EP4691467A1, “USE OF INHIBITOR SPECIFICALLY TARGETING NLRP3 INFLAMMASOME” (Sichuan Jianlin Pharmaceutical Co., Ltd, priority 2023, dated 2024).

Experiments:
[1] = tested on: experimental autoimmune encephalomyelitis (EAE); details: in vivo
IL-18 = details: Muckle Wells syndrome
ASC specks = details: cells pre-treated with MCC950, pro-inflammatory conditions
[2] = phase II clinical trials, rheumatoid arthritis; trials suspended

SMILES: CC(C)(O)c1coc(S(=O)(=O)NC(=O)Nc2c3c(cc4c2CCC4)CCC3)c1 [MCC950]
- severity of disease models of multiple sclerosis (EAE) [1]: attenuate
- release of IL-18 in plasma (IL-18): shows efficacy in inhibiting
- formation of ASC specks (ASC specks): inhibit
- lethality of newborn mice (CAPS mouse model): reduce
- extension of lifespan (CAPS mouse model; newborn mice): ~20 days
- hepatotoxicity [2]: excessive hepatotoxicity
- production of IL-1β in vivo (IL-1β): reduce
